Data taken from the supplement of paper PMC10307832.

Experiments:
Test in all cases: relative viability (nuclei count vs DMSO), 5 days (fraction); higher = more cells survive
[1] = compound: C[C@]12O[C@H](C[C@]1(O)CO)n1c3ccccc3c3c4c(c5c6ccccc6n2c5c31)CNC4=O [Lestaurtinib] + CS(=O)(=O)N1CCN(Cc2cc3nc(-c4cccc5[nH]ncc45)nc(N4CCOCC4)c3s2)CC1 [Pictilisib] (partner 1 µM)
How it was run: (§1)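 Lung cancer cell lines in 1536-well plates got either a single drug or a fixed anchor-drug dose together with five library-drug doses (not always all listed) in √10 steps, by pin tool, on the day after seeding. Nuclei were counted after 5 days, and relative viability is the treated-to-vehicle ratio of nuclei counts. Values are medians of duplicate plates.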

[2] = compound: C1/C(=C\C2=CC=CS2)/C(=O)/C(=C/C3=CC=CS3)/C1 + CS(=O)(=O)CCNCc1ccc(-c2ccc3ncnc(Nc4ccc(OCc5cccc(F)c5)c(Cl)c4)c3c2)o1 [Lapatinib] (partner 2 µM)
How it was run: as §1

[3] = compound: C[C@]12O[C@H](C[C@]1(O)CO)n1c3ccccc3c3c4c(c5c6ccccc6n2c5c31)CNC4=O [Lestaurtinib] + Nc1ncn([C@H]2C[C@H](O)[C@@H](CO)O2)c(=O)n1 [Decitabine] (partner 2 µM)
How it was run: as §1

[4] = compound: C1/C(=C\C2=CC=CS2)/C(=O)/C(=C/C3=CC=CS3)/C1 + CS(=O)(=O)N1CCN(Cc2cc3nc(-c4cccc5[nH]ncc45)nc(N4CCOCC4)c3s2)CC1 [Pictilisib] (partner 1 µM)
How it was run: as §1

| Cell Line | relative viability ([1]; first compound 0.005 µM) | relative viability ([1]; first compound 0.01581 µM) | relative viability ([1]; first compound 0.05 µM) | relative viability ([1]; first compound 0.1581 µM) | relative viability ([1]; first compound 0.5 µM) | relative viability ([2]; first compound 0.2 µM) | relative viability ([2]; first compound 0.6325 µM) | relative viability ([2]; first compound 2 µM) | relative viability ([2]; first compound 6.325 µM) | relative viability ([2]; first compound 20 µM) | relative viability ([3]; first compound 0.005 µM) | relative viability ([3]; first compound 0.01581 µM) | relative viability ([3]; first compound 0.05 µM) | relative viability ([3]; first compound 0.1581 µM) | relative viability ([3]; first compound 0.5 µM) | relative viability ([4]; first compound 0.2 µM) | relative viability ([4]; first compound 0.6325 µM) | relative viability ([4]; first compound 2 µM) | relative viability ([4]; first compound 6.325 µM) | relative viability ([4]; first compound 20 µM) |
| --- | --- | --- | --- | --- | --- | --- | --- | --- | --- | --- | --- | --- | --- | --- | --- | --- | --- | --- | --- | --- |
| NCI-H2347 | 0.692 | 0.996 | 0.485 | 0.472 | 0.532 | 1.03 | 0.977 | 0.901 | 0.898 | 0.915 | 0.587 | 0.651 | 0.57 | 0.512 | 0.496 | 0.652 | 0.63 | 0.928 | 0.889 | 0.446 |
| NCI-H2405 | 0.417 | 0.404 | 0.356 | 0.345 | 0.202 | 1.12 | 1.07 | 1.33 | 0.887 | 1.14 | 0.728 | 0.77 | 0.742 | 0.638 | 0.413 | 0.491 | 0.386 | 0.572 | 0.452 | 0.416 |
| NCI-H3122 | 0.671 | 0.798 | 0.628 | 0.45 | 0.423 | 1 | 1.06 | 1.04 | 0.877 | 0.995 | 0.47 | 0.582 | 0.465 | 0.453 | 0.424 | 0.681 | 0.579 | 0.718 | 0.466 | 0.642 |
| PC-3 [JPC-3] | 0.77 | 0.736 | 0.555 | 0.606 | 0.408 | 0.445 | 0.406 | 0.512 | 0.461 | 0.446 | 0.814 | 0.829 | 0.915 | 0.816 | 0.733 | 0.65 | 0.765 | 0.798 | 0.629 | 0.719 |
| PC-14 | 0.639 | 0.49 | 0.283 | 0.254 | 0.171 | 0.352 | 0.362 | 0.353 | 0.293 | 0.27 | 0.244 | 0.223 | 0.237 | 0.207 | 0.0672 | 0.815 | 0.654 | 0.69 | 0.755 | 0.737 |
| RERF-LC-KJ | 0.593 | 0.235 | 0.458 | 0.387 | 0.243 | 0.915 | 0.943 | 0.827 | 0.893 | 0.764 | 0.869 | 0.791 | 0.563 | 0.562 | 0.241 | 0.566 | 0.583 | 0.583 | 0.42 | 0.494 |
| SK-LU-1 | 0.464 | 0.464 | 0.297 | 0.436 | 0.246 | 0.91 | 0.787 | 0.846 | 0.721 | 0.922 | 0.634 | 0.607 | 0.48 | 0.424 | 0.349 | 0.583 | 0.709 | 0.649 | 0.56 | 0.665 |
| SK-MES-1 | 0.322 | 0.312 | 0.259 | 0.262 | 0.177 | 0.498 | 0.45 | 0.486 | 0.322 | 0.395 | 0.36 | 0.441 | 0.321 | 0.282 | 0.142 | 0.282 | 0.355 | 0.391 | 0.268 | 0.382 |
| SW 1573 | 0.624 | 0.562 | 0.454 | 0.314 | 0.174 | 1.07 | 1.15 | 1.17 | 1.09 | 1.03 | 0.562 | 0.601 | 0.45 | 0.352 | 0.103 | 0.54 | 0.523 | 0.551 | 0.377 | 0.512 |
